Data as given in patent US10493159B2, “Protein transduction domains mimics” (University of Massachusetts, priority 2010, dated 2019).

Assay: Transport activity, carboxyfluorescein release from vesicles, Hill analysis
Settings: EYPC⊃CF vesicles, no counterion activator
Method: Transport activities for these novel PTDMs were determined using the standard biophysical assay well documented in the CPP literature. (Hennig, et al. 2008 J. Am. Chem. Soc. 130, 10338.) Specifically, 5(6)-carboxyfluorescein (CF) was used as a fluorescent probe in egg yolk phosphatidylcholine large unilamellar vesicles (EYPC-LUVs). The activity of these transporters increased with increasing polymer concentration at a constant vesicle concentration as detected by CF emission intensity, yielding plots of fluorescence intensity versus polymer concentration (FIG. 42, FIG. 43). […] (Sakai, et al. 2003 J. Am. Chem. Soc. 125, 14348; Sakai, et al. 2006 Soft Matter 2, 636; Sakai, et al. 2005 Chembiochem 6, 114; Hennig, et al. 2008 J. Am. Chem. Soc. 130, 10338; Nishihara, et al. 2005 Org. Biomol. Chem., 3, 1659; Perret, et al. 2005 J. Am. Chem. Soc. 127, 1114.) This analysis gave Ymax (maximal CF release relative to complete release by Triton X-100), EC50 (effective polymer concentration needed to reach Ymax/2), and the Hill coefficient n (see Table 2).
Preparation of EYPC-LUVs⊃CF. […]
Polymer Activity in EYPC-LUVs⊃CF. […] The time-dependent change in fluorescence intensity It (λex=492 nm, λem=517 nm) was monitored during the addition of polymer (20 μL stock solution in DMSO) at t=100 s, and addition of 40 μl 1.2% (aq.) triton X-100 at the end of every experiment (t=900 s) (FIG. 42). […]

With polyarginine the “transport activity” value was “inactive”.
